Laboratory results reported in patent US11596692B1 (Incyte Corporation, priority 2018, dated 2023).
Where two headings read alike, the source gives them in different places.

Test system: IRF3
Assay: IRF3 activation assay in THP-1 Dual cells
Format: cell-based
Settings: Homo sapiens, read-out: THP1 IRF3 EC50
Procedure: THP-1 Dual Cells (Invivogen) were maintained in RPMI1640 medium with addition of 10% FBS, 100 μg/ml zeocin, 10 μg/ml blasticidin. Cells were added in a 96-well flat bottom assay plate at 100,000 per well in 100 μL complete RPMI medium. Test compounds were prepared by serial dilution in complete RPMI medium and 100 μL test compounds were transferred to each corresponding well. The assay plate was incubated at 37° C., 5% CO2 for 24 hours. After the overnight incubation, 20 μL of the culture supernatants were collected, followed by addition of 180 μL of QUANTI-Blue (Invivogen) to assess IRF3 activity. The amount of IRF3 activation was assessed by reading the absorbance at 620-655 nm with a microplate reader 2 hours later. The culture supernatant from the untreated THP-1 cells was used as the negative control. EC50 determination was performed by fitting the curve of percent control activity versus the log of the compound concentration using the GraphPad Prism 6.0 software.

EC50 (THP-1, Table 4C)	EC50 (THP-1, Table 4A)	EC50 (THP-1, Table 4B)	SMILES
50 to 200 nM	–	–	CCn1nc(C)cc1C(=O)Nc1nc2cc(C(N)=O)cc(OCCCOC)c2n1C/C=C/Cn1c2nc(-c3cc(C)nn3CC)ncc2c2cc(C(N)=O)cc(OCCOCCOCCC(=O)O)c21 [Example S58, (E)-3-(2-(2-(6-carbamoyl-9-(4-(5-carbamoyl-2-(1-ethyl-3-methyl-1H-pyrazole-5-carboxamido)-7-(3-methoxypropoxy)-1H-benzo[d]imidazol-1-yl)but-2-enyl)-2-(1-ethyl-3-methyl-1H-pyrazol-5-yl)-9H-pyrimido[4,5-b]indol-8-yloxy)ethoxy)ethoxy)propanoic acid]
200 to 500 nM	–	–	CCn1nc(C)cc1C(=O)Nc1nc2cc(C(N)=O)cc(OCCCOC(=O)NCCC(=O)O)c2n1C/C=C/Cn1c2nc(-c3cc(C)nn3CC)ncc2c2cc(C(N)=O)cc(OCCOCCOCCC(=O)O)c21 [Example S63, (E)-3-(((3-((5-carbamoyl-1-(4-(6-carbamoyl-8-(2-(2-(2-carboxyethoxy)ethoxy)ethoxy)-2-(1-ethyl-3-methyl-1H-pyrazol-5-yl)-9H-pyrimido[4,5-b]indol-9-yl)but-2-en-1-yl)-2-(1-ethyl-3-methyl-1H-pyrazole-5-carboxamido)-1H-benzo[d]imidazol-7-yl)oxy)propoxy)carbonyl)amino)propanoic acid]
≤ 50 nM	–	–	CCn1nc(C)cc1C(=O)Nc1nc2cc(C(N)=O)cc(OCCCOC)c2n1C/C=C/Cn1c2nc(-c3cc(C)nn3CC)ncc2c2cc(C(N)=O)cc(OCCCNC(=O)OCCC(=O)O)c21 [Example S56, (E)-3-(3-(6-carbamoyl-9-(4-(5-carbamoyl-2-(1-ethyl-3-methyl-1H-pyrazole-5-carboxamido)-7-(3-methoxypropoxy)-1H-benzo[d]imidazol-1-yl)but-2-enyl)-2-(1-ethyl-3-methyl-1H-pyrazol-5-yl)-9H-pyrimido[4,5-b]indol-8-yloxy)propylcarbamoyloxy)propanoic acid]
50 to 200 nM	–	–	CCn1nc(C)cc1C(=O)Nc1nc2cc(C(N)=O)cc(OC)c2n1C/C=C/Cn1c2nc(-c3cc(C)nn3CC)ncc2c2cc(C(N)=O)cc(OCCC3CCN(C(=O)OCC(=O)O)CC3)c21 [Example S61]
50 to 200 nM	–	–	CCn1nc(C)cc1C(=O)Nc1nc2cc(C(N)=O)cc(OCCCNC(=O)[C@@H](N)CC(=O)O)c2n1C/C=C/Cn1c2nc(-c3cc(C)nn3CC)ncc2c2cc(C(N)=O)cc(OCCCOC)c21 [Example S47, (S,E)-3-amino-4-((3-((5-carbamoyl-1-(4-(6-carbamoyl-2-(1-ethyl-3-methyl-1H-pyrazol-5-yl)-8-(3-methoxypropoxy)-9H-pyrimido[4,5-b]indol-9-yl)but-2-en-1-yl)-2-(1-ethyl-3-methyl-1H-pyrazole-5-carboxamido)-1H-benzo[d]imidazol-7-yl)oxy)propyl)amino)-4-oxobutanoic acid]
50 to 200 nM	–	–	CCn1nc(C)cc1C(=O)Nc1nc2cc(C(N)=O)cc(OCCCOC)c2n1C/C=C/Cn1c2nc(-c3cc(C)nn3CC)ncc2c2cc(C(N)=O)cc(OCCCOC(=O)NCCC(=O)O)c21 [Example S57, (E)-3-((3-(6-carbamoyl-9-(4-(5-carbamoyl-2-(1-ethyl-3-methyl-1H-pyrazole-5-carboxamido)-7-(3-methoxypropoxy)-1H-benzo[d]imidazol-1-yl)but-2-enyl)-2-(1-ethyl-3-methyl-1H-pyrazol-5-yl)-9H-pyrimido[4,5-b]indol-8-yloxy)propoxy)carbonylamino)propanoic acid]
≤ 50 nM	≤ 100 nM	< 200 nM	CCn1nc(C)cc1C(=O)Nc1nc2cc(C(N)=O)cc(OCCCOC(=O)c3cc(C)nn3CC)c2n1C/C=C/Cn1c2nc(-c3cc(C)nn3CC)ncc2c2cc(C(N)=O)cc(OC)c21 [Example S15, (E)-3-((5-carbamoyl-1-(4-(6-carbamoyl-2-(1-ethyl-3-methyl-1H-pyrazol-5-yl)-8-methoxy-9H-pyrimido[4,5-b]indol-9-yl)but-2-en-1-yl)-2-(1-ethyl-3-methyl-1H-pyrazole-5-carboxamido)-1H-benzo[d]imidazol-7-yl)oxy)propyl 1-ethyl-3-methyl-1H-pyrazole-5-carboxylate]
50 to 200 nM	100 to 500 nM	< 200 nM	CCn1nc(C)cc1C(=O)Nc1nc2cc(C(N)=O)cc(C)c2n1C/C=C/Cn1c2ccc(C(N)=O)cc2c2cnc(-c3cc(C)nn3CC)c(F)c21 [Example S23, (E)-5-(4-(5-carbamoyl-2-(1-ethyl-3-methyl-1H-pyrazole-5-carboxamido)-7-methyl-1H-benzo[d]imidazol-1-yl)but-2-en-1-yl)-3-(1-ethyl-3-methyl-1H-pyrazol-5-yl)-4-fluoro-5H-pyrido[4,3-b]indole-8-carboxamide]

The remaining lines, values behind:

SMILES	EC50 (THP-1, Table 4C)	EC50 (THP-1, Table 4A)	EC50 (THP-1, Table 4B)
CCn1nc(C)cc1C(=O)Nc1nc2cc(C(N)=O)cc(OCCCO)c2n1C/C=C/Cn1c2ccc(C(N)=O)cc2c2cc(F)c(-c3cc(C)nn3CC)nc21 [Example S37, (E)-9-(4-(5-carbamoyl-2-(1-ethyl-3-methyl-1H-pyrazole-5-carboxamido)-7-(3-hydroxypropoxy)-1H-benzo[d]imidazol-1-yl)but-2-en-1-yl)-2-(1-ethyl-3-methyl-1H-pyrazol-5-yl)-3-fluoro-9H-pyrido[2,3-b]indole-6-carboxamide]	≤ 50 nM	–	–
CCn1nc(C)cc1C(=O)Nc1nc2cc(C(N)=O)cc(C)c2n1C/C=C/Cn1c2nc(-c3cc(C)nn3CC)ncc2c2cc(C(N)=O)cc(OCCCO)c21 [Example S13, (E)-9-(4-(5-carbamoyl-2-(1-ethyl-3-methyl-1H-pyrazole-5-carboxamido)-7-methyl-1H-benzo[d]imidazol-1-yl)but-2-enyl)-2-(1-ethyl-3-methyl-1H-pyrazol-5-yl)-8-(3-hydroxypropoxy)-9H-pyrimido[4,5-b]indole-6-carboxamide]	≤ 50 nM	≤ 100 nM	< 200 nM
CCn1nc(C)cc1C(=O)Nc1nc2cc(C(N)=O)cc(C)c2n1C/C=C/Cn1c2nc(-c3cc(C)nn3CC)ncc2c2cc(C(N)=O)cc(OC)c21 [Example S10, (E)-9-(4-(5-carbamoyl-2-(1-ethyl-3-methyl-1H-pyrazole-5-carboxamido)-7-methyl-1H-benzo[d]imidazol-1-yl)but-2-enyl)-2-(1-ethyl-3-methyl-1H-pyrazol-5-yl)-8-methoxy-9H-pyrimido[4,5-b]indole-6-carboxamide]	≤ 50 nM	≤ 100 nM	< 200 nM
CCn1nc(C)cc1C(=O)Nc1nc2cc(C(N)=O)cc(OCCCNC(=O)CCC(=O)O)c2n1C/C=C/Cn1c2nc(-c3cc(C)nn3CC)ncc2c2cc(C(N)=O)cc(OCCCOC)c21 [Example S64, (E)-4-((3-((5-carbamoyl-1-(4-(6-carbamoyl-2-(1-ethyl-3-methyl-1H-pyrazol-5-yl)-8-(3-methoxypropoxy)-9H-pyrimido[4,5-b]indol-9-yl)but-2-en-1-yl)-2-(1-ethyl-3-methyl-1H-pyrazole-5-carboxamido)-1H-benzo[d]imidazol-7-yl)oxy)propyl)amino)-4-oxobutanoic acid]	50 to 200 nM	–	–
CCn1nc(C)cc1C(=O)Nc1nc2cc(C(N)=O)cc(OC)c2n1C/C=C/Cn1c2ccc(C(N)=O)cc2c2cnc(-c3cc(C)nn3CC)nc21 [Example S4, (E)-9-(4-(5-carbamoyl-2-(1-ethyl-3-methyl-1H-pyrazole-5-carboxamido)-7-methoxy-1H-benzo[d]imidazol-1-yl)but-2-enyl)-2-(1-ethyl-3-methyl-1H-pyrazol-5-yl)-9H-pyrimido[4,5-d]indole-6-carboxamide]	500 to 1000 nM	500 to 1000 nM	< 1000 nM
